GI50 and TGI data for seven molecules are collected here from PubChem BioAssay (NCI).

Molecules are shown by their SMILES.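 Cells were grown in 96-well plates and exposed to each compound for 48 hours at five concentrations; endpoints were interpolated linearly between bracketing concentrations, or set to the highest concentration if not reached. GI50 marks 50% less growth. TGI denotes the concentration required for complete inhibition of growth.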 Bounds are passed on as bounds.

Some test systems named below: 786-0 renal; UACC-62 melanoma; M14 melanoma; HOP-92 NSCLC; PC-3 prostate; KM12 colon; SK-MEL-2 melanoma; SNB-19 CNS; T-47D breast; BT-549 breast.
What all share (assay): growth of human tumour cells (NCI), 48 h

Turning to `COc1cc2c(cc1OC)[C@@]1(C)C(=O)c3cc4c(cc3[C@H]1N(C)C2=O)OCO4`, the GI50 is 54.3 µM with 786-0 renal; 26 µM with UACC-62 melanoma; 82.6 µM in the assay on M14 melanoma; 28.8 µM in the assay on HOP-92 NSCLC; 75.2 µM in the assay on PC-3 prostate; over 100 µM in the assay with KM12 colon. Also, the GI50 with SK-MEL-2 melanoma is 40.4 µM; in the assay on SNB-19 CNS, over 100 µM; in the assay with T-47D breast it was 37.9 µM; with BT-549 breast, 29 µM. The TGI with 786-0 renal, in the assay on UACC-62 melanoma, in the assay with M14 melanoma, in the assay with HOP-92 NSCLC, with PC-3 prostate and with KM12 colon was over 100 µM each time. The TGI in the assay with SK-MEL-2 melanoma, with SNB-19 CNS, in the assay on T-47D breast and in the assay on BT-549 breast was over 100 µM throughout.
For the molecule `CCNc1nc(N2CC(=O)Nc3cc(OC)ccc32)c2ccccc2n1`, the GI50 in the assay on 786-0 renal is 0.00994 µM; in the assay with UACC-62 melanoma, 0.00054 µM; in the assay on M14 melanoma, 0.000363 µM; with HOP-92 NSCLC, 1.26 µM; with PC-3 prostate it was 0.00058 µM; in the assay on KM12 colon, 0.000404 µM. The figures for the GI50 with SNB-19 CNS, in the assay with T-47D breast and with BT-549 breast were 0.00067 µM, 0.253 µM and 0.00237 µM, respectively. The TGI is over 100 µM with 786-0 renal; over 100 µM with UACC-62 melanoma; over 100 µM in the assay on M14 melanoma; 9.69 µM in the assay on HOP-92 NSCLC; over 100 µM in the assay on PC-3 prostate; over 100 µM with KM12 colon. The TGI is 42.7 µM with SK-MEL-2 melanoma, over 100 µM in the assay with SNB-19 CNS, 52.9 µM with T-47D breast and 3.91 µM with BT-549 breast.
For `CCOC(=O)c1c(Cl)c2c(n1Cc1cc(OC)cc(OC)c1)-c1oncc1CCC2`, the GI50 was 1.47 µM in the assay with 786-0 renal; 0.193 µM with UACC-62 melanoma; 0.266 µM with M14 melanoma; 0.335 µM with HOP-92 NSCLC; 0.293 µM with PC-3 prostate; 0.346 µM in the assay on KM12 colon. In addition, the GI50 in the assay on SK-MEL-2 melanoma was 0.226 µM; in the assay with SNB-19 CNS, 0.629 µM; in the assay with T-47D breast it was 0.445 µM; with BT-549 breast, 19.6 µM. Moreover, the TGI was over 71.4 µM with 786-0 renal; over 100 µM in the assay with UACC-62 melanoma; over 100 µM with M14 melanoma; 28.6 µM with HOP-92 NSCLC; over 100 µM in the assay on PC-3 prostate; over 100 µM with KM12 colon. Also, the TGI was 4.07 µM in the assay on SK-MEL-2 melanoma, over 100 µM in the assay with SNB-19 CNS, over 100 µM in the assay with T-47D breast and over 100 µM in the assay on BT-549 breast.
With `CO[C@H]1CC[C@@]2(C)C(=CC[C@H]3[C@@H]4C[C@H](O)C[C@@]4(C)CC[C@@H]32)C1`, the GI50 was 11.7 µM in the assay with 786-0 renal; 3.88 µM with UACC-62 melanoma; 3.61 µM in the assay with M14 melanoma; 1.38 µM in the assay on HOP-92 NSCLC; 3.91 µM in the assay on PC-3 prostate; 4.5 µM in the assay with KM12 colon. For the same molecule, the GI50 was 2.74 µM in the assay on SK-MEL-2 melanoma, 4.86 µM in the assay with SNB-19 CNS, 8.33 µM with T-47D breast and 7.38 µM in the assay on BT-549 breast. In addition, the TGI in the assay with 786-0 renal is 37.7 µM; in the assay on UACC-62 melanoma, 16.9 µM; in the assay with M14 melanoma, 16.2 µM; with HOP-92 NSCLC, 18.1 µM; with PC-3 prostate, 30.3 µM; with KM12 colon it was 15.8 µM. The TGI in the assay on SK-MEL-2 melanoma was found to be 6.83 µM; in the assay with SNB-19 CNS it was 22.2 µM; with T-47D breast, 31.8 µM; in the assay on BT-549 breast, 22.8 µM.
For `COc1ccc(F)cc1C(=O)c1cnc(NC2CCN(S(C)(=O)=O)CC2)nc1N`, the GI50 in the assay on 786-0 renal was 5.03 µM; in the assay with UACC-62 melanoma, 2.75 µM; with M14 melanoma, 4.51 µM; in the assay on HOP-92 NSCLC, 1.35 µM; in the assay with PC-3 prostate, 2.79 µM; in the assay with KM12 colon, 2.4 µM. Moreover, the GI50 in the assay with SK-MEL-2 melanoma was 3.48 µM; with SNB-19 CNS it was 1.8 µM; with T-47D breast, 4.49 µM; with BT-549 breast, 4.11 µM. The TGI was over 25 µM in the assay with 786-0 renal; 8.95 µM with UACC-62 melanoma; over 25 µM in the assay with M14 melanoma; 9.59 µM in the assay with HOP-92 NSCLC; 18.1 µM in the assay with PC-3 prostate; over 25 µM in the assay on KM12 colon. Also, the TGI in the assay on SK-MEL-2 melanoma is 9.76 µM; with SNB-19 CNS it was over 25 µM; in the assay on T-47D breast it was over 22.6 µM; in the assay with BT-549 breast it was 14.3 µM.
As for `COc1cc(C(=O)n2nc(N3CCN(C)CC3)c3cc(N)ccc32)cc(OC)c1OC`, the GI50 is 4.42 µM in the assay with 786-0 renal; 2.78 µM in the assay with UACC-62 melanoma; 3.74 µM with M14 melanoma; 6.4 µM in the assay with HOP-92 NSCLC; 17.7 µM with PC-3 prostate; 3.51 µM with KM12 colon. Besides, the GI50 was 10.4 µM in the assay with SK-MEL-2 melanoma, 4.75 µM in the assay on SNB-19 CNS, over 100 µM in the assay with T-47D breast and 4.32 µM in the assay with BT-549 breast. Moreover, the TGI was over 100 µM in the assay with 786-0 renal; 17.7 µM in the assay with UACC-62 melanoma; 16.7 µM in the assay on M14 melanoma; over 100 µM with HOP-92 NSCLC; over 100 µM in the assay on PC-3 prostate; 27.2 µM in the assay on KM12 colon. Besides, the TGI with SK-MEL-2 melanoma was 67.5 µM; in the assay with SNB-19 CNS, over 100 µM; in the assay on T-47D breast it was over 100 µM; in the assay on BT-549 breast, over 100 µM.
`O=C1/C(=C/c2ccc(Cl)cc2)CN(C(=O)C(Cl)Cl)C/C1=C\c1ccc(Cl)cc1`: the GI50 was 0.183 µM with 786-0 renal; 0.19 µM with UACC-62 melanoma; 0.242 µM in the assay on M14 melanoma; 0.249 µM in the assay with HOP-92 NSCLC; 0.199 µM in the assay with PC-3 prostate; 0.0912 µM in the assay on KM12 colon. In addition, the GI50 in the assay with SK-MEL-2 melanoma is 1.18 µM; with SNB-19 CNS, 0.177 µM; with T-47D breast, 0.297 µM; in the assay with BT-549 breast, 0.259 µM. Further, the TGI worked out at 0.371 µM in the assay on 786-0 renal; 0.426 µM with UACC-62 melanoma; 0.749 µM with M14 melanoma; 1.01 µM in the assay with HOP-92 NSCLC; 0.686 µM in the assay on PC-3 prostate; 0.273 µM with KM12 colon. Moreover, the TGI with SK-MEL-2 melanoma came to 3.07 µM; with SNB-19 CNS, 0.576 µM; in the assay with T-47D breast, 1.62 µM; in the assay with BT-549 breast, 0.765 µM.
